We go through 46 compounds from ChEMBL document CHEMBL1201862, “PubChem BioAssay data set” (2004).

The structures appear in SMILES notation. Where a name gives a salt, the structure may show the parent alone. Calls of active or inactive are those of the source. Rule as the data show it, for most assays here: actives have a measured EC50 and inactives only a lower limit.

Assay [1] is described as follows: Trypanosoma cruzi growth suppression in host cells – NIH3T3 host cells, beta-gal luminescence, confirmation (AID 2044).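 Also: intracellular parasites grown in NIH/3T3 mouse fibroblasts as host cells; luminescent beta-galactosidase reporter signal from transgenic T. cruzi replicating inside host cells; inhibitors lower the luminescence signal.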 It is filed as functional, cell-based.
Assay [2] is described as follows: NIH3T3 cell viability loss – ATP luminescence, mouse fibroblasts, counter-screen, dose response (AID 2010).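 Also: cells exposed to compound for about 90 hours before reading.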 It is filed as functional, cell-based.
The subject of a further assay is H4. Briefly: Luminescence Cell-Based Dose Response HTS to Identify Activators of 5'UTR Stem-Loop Driven Prion Protein mRNA Translation in H4 Neuroglioblastoma Cells. [Related pubchem assays: 1829 (Project Summary), 1814 (Primary HTS)]. It is filed as functional. The note with it: Homo sapiens.
Assay [3] can be described thus: Luminescence Cell-Based Dose Response HTS to Identify Activators of Luciferase Translation or Activity in H4 […] Cells. [Related pubchem assays: 1829 (Project Summary), 1814 (Primary HTS)]. It is filed as functional.
The target in a further assay is Cytochrome P450 3A4 (Homo sapiens, UniProt P08684).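 Also: CYP3A4 tested as one member of a cytochrome P450 panel screen.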
Cytochrome P450 3A4, sequence (P08684 whole entry): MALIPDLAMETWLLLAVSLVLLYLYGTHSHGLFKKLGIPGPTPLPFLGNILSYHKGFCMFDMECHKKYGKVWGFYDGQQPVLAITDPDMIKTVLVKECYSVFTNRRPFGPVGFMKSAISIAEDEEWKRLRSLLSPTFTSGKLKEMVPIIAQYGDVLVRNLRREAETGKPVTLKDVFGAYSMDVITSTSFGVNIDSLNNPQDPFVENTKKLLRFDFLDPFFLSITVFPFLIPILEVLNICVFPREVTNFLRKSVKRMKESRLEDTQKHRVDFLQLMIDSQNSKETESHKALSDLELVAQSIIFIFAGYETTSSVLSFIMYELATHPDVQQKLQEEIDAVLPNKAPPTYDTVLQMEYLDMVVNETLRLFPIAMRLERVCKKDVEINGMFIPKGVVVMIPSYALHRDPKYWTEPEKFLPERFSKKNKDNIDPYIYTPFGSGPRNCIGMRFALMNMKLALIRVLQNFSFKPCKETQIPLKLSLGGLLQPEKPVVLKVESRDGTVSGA
For the next assay, the target named is T1, Cytochrome P450 1A2 (Homo sapiens, UniProt P05177).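 Also: PubChem cytochrome P450 panel assay, CYP1A2 panel member.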
T1 sequence (P05177 whole entry): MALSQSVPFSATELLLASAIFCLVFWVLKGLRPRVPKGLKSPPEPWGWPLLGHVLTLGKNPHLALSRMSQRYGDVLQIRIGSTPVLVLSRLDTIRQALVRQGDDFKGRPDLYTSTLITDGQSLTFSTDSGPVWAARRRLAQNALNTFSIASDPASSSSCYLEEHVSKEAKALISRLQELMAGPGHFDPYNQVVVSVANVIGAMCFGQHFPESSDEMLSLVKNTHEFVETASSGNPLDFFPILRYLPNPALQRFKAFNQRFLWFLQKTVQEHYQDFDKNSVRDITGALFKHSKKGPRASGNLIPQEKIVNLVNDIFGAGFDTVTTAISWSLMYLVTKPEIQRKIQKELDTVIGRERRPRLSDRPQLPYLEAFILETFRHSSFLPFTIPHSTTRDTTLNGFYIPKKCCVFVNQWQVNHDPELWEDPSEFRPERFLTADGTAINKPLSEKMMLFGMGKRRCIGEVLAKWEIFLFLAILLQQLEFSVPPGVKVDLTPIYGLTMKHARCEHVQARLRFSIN

Assay [4] in a line: Luminescence Cell-Based Dose Confirmation HTS to Identify Activators of 5'UTR Stem-Loop Driven Alpha-Synuclein mRNA Translation in H4 Neuroglioblastoma Cells. [Related pubchem assays: 1829 (Project Summary), 1814 (Primary HTS)]. It is filed as functional.
Assay [5] has as its target T2, Corticotropin-releasing factor receptor 2/Corticotropin-releasing factor-binding protein (Homo sapiens, UniProt P24387+Q13324).
T2 sequence (Q13324 whole entry): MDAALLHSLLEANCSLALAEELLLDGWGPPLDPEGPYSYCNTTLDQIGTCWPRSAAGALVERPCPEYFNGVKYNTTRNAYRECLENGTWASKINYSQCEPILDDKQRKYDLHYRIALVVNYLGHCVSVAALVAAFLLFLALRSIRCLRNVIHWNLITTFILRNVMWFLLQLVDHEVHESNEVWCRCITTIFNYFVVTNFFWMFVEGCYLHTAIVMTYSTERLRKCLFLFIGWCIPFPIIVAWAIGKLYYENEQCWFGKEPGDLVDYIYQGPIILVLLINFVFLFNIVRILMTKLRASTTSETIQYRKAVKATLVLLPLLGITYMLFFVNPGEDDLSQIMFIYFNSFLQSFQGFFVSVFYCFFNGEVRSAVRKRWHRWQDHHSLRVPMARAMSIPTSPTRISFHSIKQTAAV
T2 sequence (P24387 whole entry): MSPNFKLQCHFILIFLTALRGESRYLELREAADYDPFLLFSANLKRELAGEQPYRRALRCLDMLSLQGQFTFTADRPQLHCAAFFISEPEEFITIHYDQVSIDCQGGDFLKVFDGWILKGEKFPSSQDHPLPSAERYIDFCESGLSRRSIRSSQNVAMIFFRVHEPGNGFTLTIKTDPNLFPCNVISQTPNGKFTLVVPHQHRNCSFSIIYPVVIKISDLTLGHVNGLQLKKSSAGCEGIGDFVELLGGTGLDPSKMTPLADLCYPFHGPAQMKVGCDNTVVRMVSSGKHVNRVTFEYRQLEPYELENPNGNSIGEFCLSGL
Briefly: activators of CRF receptor 2 with binding protein – uHTS hits, confirmation (AID 602473). It is filed as functional. As to conditions: read-out: EC50_Mean.

In the case of `Cc1[nH]c2ccc(-c3nnc(SCC(=O)N4CCCc5ccccc54)o3)cc2c1C`, the EC50 in assay [1] is 0.782 µM (active); in assay [2], > 60 µM (not active).

Take `Cc1ccc(NC(=O)CN2CCCCCC2)c(Br)c1`: the figures for the EC50 (in the assay with H4; in assay [3]) were 59.9 µM (active) and 9.38 µM (active), respectively.

Take `Clc1ccc(CSc2nnc(-c3ccncc3)s2)cc1`: the figures for the EC50 in assay [1] and in assay [2] were 2.14 µM (active) and 26.3 µM (active), respectively.

For `Cc1cc(C)c2c(N)c(C(=O)c3ccccc3Cl)sc2n1`, the EC50 in assay [1] was 0.1 µM (active); in assay [2] it was > 60 µM (not active).

Take `CO[C@@H]1COC(=O)[C@H](COCc2ccccc2)NC(=O)C/C=C\[C@@H](C)[C@H](OC)COC(=O)[C@@H](C)NC(=O)C/C=C\[C@H]1C`: the AC50 on Cytochrome P450 3A4 is 3.16 µM (inconclusive).

`Cn1c(C(=O)OC(C(=O)NC2CCCC2)c2cccnc2)cc2sccc21` (stereo unspecified): the EC50 in assay [1] is 0.489 µM (active); in assay [2], > 60 µM (not active).

Regarding `CCN1CCN(c2ccc(S(=O)(=O)N3CCOCC3)cc2NC(=O)CCOc2ccccc2)CC1`, the EC50 in assay [1] is 1.26 µM (active); in assay [2], > 60 µM (not active).

As to `O[C@@H](c1cc(-c2ccccc2)nc2c1ccc1ccccc12)[C@@H]1CCCCN1`, the AC50 on Cytochrome P450 1A2 was 5.01 µM (inconclusive).

Turning to `CO[C@@H]1COC(=O)C/C=C\[C@@H](C)COC(=O)[C@H](Cc2ccccc2)NC(=O)C/C=C\[C@H]1C`, the AC50 on Cytochrome P450 3A4 was 1.58 µM (inconclusive).

`Cc1ccc(NC2CCCN(C(=O)CSc3ccncc3)C2)cc1C` (stereo unspecified): the figures for the EC50 in assay [1] and in assay [2] were 0.294 µM (active) and > 60 µM (not active), respectively.

`COc1cc2c(cc1OC)[C@@H]1Cc3ccc(OC)c(OC)c3CN1CC2`: the EC50 in assay [1] and in assay [2] was > 60 µM (not active) in each case.

As for `Oc1ccc2c3c1O[C@H]1c4oc5ccccc5c4C[C@]4(O)[C@H](C2)N(CC2CC2)CC[C@@]314`, the AC50 on Cytochrome P450 3A4 was 15.8 µM (inconclusive).

Turning to `COc1ccc(C(CNC(=O)c2cc(O)nc3ccccc23)N2CCCC2)cc1` (stereo unspecified), the figures for the AC50 on Cytochrome P450 1A2 and on Cytochrome P450 3A4 were 20 µM (inconclusive) and 15.8 µM (inconclusive), respectively.

As to `Cc1ccc(Cl)cc1N1CCN(CC(=O)Nc2ccc(CN3CCCCC3)cc2)CC1`, the EC50 in assay [1] was 1.31 µM (active); in assay [2], > 60 µM (not active).

For `Cc1cccc(CSc2nc3c(cc2C#N)CN(C)CC3)c1`, the EC50 in assay [1] was 0.156 µM (active); in assay [2], > 30 µM (not active).

Consider `O=c1c(CCc2ccccc2)nc2cnc(N3CCOCC3)nc2n1Cc1ccc(F)cc1`, for which the concentration at half-maximal activity (AC50) on Cytochrome P450 1A2 is 10 µM (inconclusive).

With `Cc1nn(CC(O)COc2ccc3c(c2)CCC3)c(C)c1Br` (stereo unspecified), on Cytochrome P450 3A4, the AC50 is 15.8 µM (inconclusive).

As for `Cc1cccc2sc(N(CCN(C)C)C(=O)C3CCN(S(=O)(=O)c4cccs4)CC3)nc12`, the EC50 in assay [1] was 0.24 µM (active); in assay [2], > 60 µM (not active).

As to `COc1ccc(CNN2CCCCC2C(=O)Nc2ccc(OC)c(OCC(C)C)c2)cc1OC` (stereo unspecified), the EC50 in assay [1] and in assay [2] was > 60 µM (not active) throughout.

For `Cc1nc2c(ccc3nc(NC(=O)c4ccc5c(c4)OCCO5)sc32)s1`, the EC50 in assay [1] was 3.07 µM (active); in assay [2], > 30 µM (not active).

Take `COc1ccc(C(=O)N2CCC3(CCCN(Cc4nccs4)C3)CC2)cc1`: the concentration at half-maximal activity (AC50) at Cytochrome P450 3A4 is 7.94 µM (inconclusive).

For `Cn1c(=O)cc(OCCCC(=O)N2CCN(c3ccccc3)CC2)c2ccccc21`, the AC50 at Cytochrome P450 1A2 was 15.8 µM (inconclusive); at Cytochrome P450 3A4, 1.12 µM (inconclusive).

Take `O=C(Nn1cc(C(=O)N2CCN(c3ccccc3F)CC2)c2ccccc2c1=O)c1cnccn1`: the values for the AC50 at Cytochrome P450 1A2 and on Cytochrome P450 3A4 were 12.6 µM (inconclusive) and 28.2 µM (inconclusive), respectively.

On to `O=[N+]([O-])c1cc(-c2n(-c3ccccn3)c3ccccc3[n+]2-c2ccccn2)ccc1Cl`, for which the EC50 is > 120 µM (not active) in the assay with H4, 14.2 µM (active) in assay [3] and 56.9 µM (active) in assay [4].

`O=[N+]([O-])c1cccc(-c2cn(-c3ccccc3)c(S)n2)c1`: the values for the EC50 (in the assay on H4; in assay [3]; in assay [4]) were > 120 µM (not active), > 120 µM (not active) and 5.64 µM (active), respectively.

Turning to `CCOC(=O)c1sc(NC(=O)c2cc(-c3ccccc3)nc3ccccc23)c(C#N)c1C`, the EC50 in assay [5] was 0.544 µM (active).

`Cc1nc(-c2ccncc2)nc(NCCNc2ncccc2C(F)(F)F)c1Cl`: the EC50 in assay [1] was 0.364 µM (active); in assay [2] it was > 60 µM (not active).

`Cc1ccc(NC(=O)CCSc2nnc3ccccn23)cc1`: the AC50 on Cytochrome P450 3A4 was 0.891 µM (inconclusive).

Take `O=C(C[n+]1c2n(c3ccc(C(F)(F)F)cc31)CCCCC2)c1ccc2c(c1)OCCO2`: the EC50 in assay [1] is 1.3 µM (active); in assay [2], > 60 µM (not active).

`CC(=O)Nc1cccc(OC(=O)c2ccoc2C)c1`: the EC50 in assay [5] was 4.9 µM (active).

For the compound `CN(C(=O)c1ccc(S(=O)(=O)NC2CCCC2)cc1)C1CCCCC1`, the EC50 in assay [5] is > 53 µM (inactive).

On to `O=C(Nc1ccc(SC(F)F)cc1)c1ccc2c(=O)n3c(nc2c1)CCC3`, for which the EC50 in assay [5] is 1.4 µM (active).

Regarding `C=CCN1C(=O)NC(=O)/C(=C/c2cccn2C)C1=O`, the concentration at half-maximal activity (AC50) on Cytochrome P450 1A2 is 15.8 µM (inconclusive).

Consider `O=C(CSc1nnc(-c2ccc(F)cc2)c2ccccc12)Nc1cccc(Cl)c1`, for which the EC50 in assay [1] was 2.16 µM (active); in assay [2] it was > 30 µM (not active).

In the case of `CN1CCN(CCCc2c3c(cc4c2CCC4)CCC3)CC1`, the EC50 in assay [1] is 0.601 µM (active); in assay [2], > 60 µM (not active).

On to `CCOC(=O)c1sc2ncnc(N3CCN(CC)CC3)c2c1C`, for which the EC50 in assay [1] is 0.577 µM (active); in assay [2], > 60 µM (inconclusive).

Consider `c1cncc(-c2nc(NCc3ccc4c(c3)OCO4)c3ccccc3n2)c1`, for which the figures for the EC50 in assay [1] and in assay [2] were 0.921 µM (active) and > 30 µM (not active), respectively.

Consider `CCOC(=O)N1CC=C2C(C#N)=C(N)C(C#N)(C#N)[C@H](c3ccccc3OCC)[C@H]2C1`, for which the EC50 (in the assay on H4; in assay [3]; in assay [4]) was > 120 µM (not active) throughout.

On to `CN(C)c1ncc2nc(-c3ccc(F)cc3)c(=O)n(Cc3cccs3)c2n1`, for which, on Cytochrome P450 3A4, the AC50 was 25.1 µM (inconclusive).

Regarding `Cc1ccc(S(=O)(=O)Nc2cccc(C(=O)NC3CCN(Cc4ccccc4)CC3)c2)cc1F`, the EC50 in assay [1] is 1.12 µM (active); in assay [2] it was > 60 µM (not active).

Regarding `NC(=O)c1c(NC(=O)CCCn2cnc([N+](=O)[O-])n2)sc2c1CCCC2`, the EC50 in assay [1] is 0.125 µM (active); in assay [2] it was > 60 µM (not active).

Take `CCc1ccc(N2CC(C(=O)NC3=NCCS3)CC2=O)cc1` (stereo unspecified): the AC50 on Cytochrome P450 1A2 was 20 µM (inconclusive).

As for `N=C(N)NC(=O)c1nc(Cl)c(N)nc1N` [AMILORIDE HYDROCHLORIDE], the AC50 on Cytochrome P450 1A2 was 6.31 µM (inconclusive).

For `CNCCC=C1c2ccccc2CCc2ccccc21` [NORTRIPTYLINE], the AC50 at Cytochrome P450 1A2 is 25.1 µM (inconclusive).

As to `CS(=O)(=O)Nc1ccc([N+](=O)[O-])cc1OC1CCCCC1` [NS-398], at Cytochrome P450 3A4, the AC50 was 20 µM (inconclusive).

Turning to `C[C@@H](C(=O)O)c1ccc(-c2ccccc2)c(F)c1` [TARENFLURBIL], the AC50 at Cytochrome P450 1A2 was 31.6 µM (inconclusive).
